# Test results from ChEMBL document CHEMBL1157052, “Novel cyclic-imide peptidomimetics as aminopeptidase N inhibitors. Structure-based design, chemistry and activity evaluation. II” (Eur J Med Chem, 2010).
# Active and inactive are the calls of the source. No cut-off for these calls is given here.
# What was measured:
# [1] = Antimetastatic activity against human ES2 cells xenografted in mouse lung assessed as inhibition of tumor growth at 10 mg/kg/day, po for 6 days a week for 2 weeks; type: functional; settings: ES-2, read-out: TGI
# K562 = assay: Antiproliferative activity against human K562 cells at 400 ug/ml after 48 hrs by MTT assay; type: functional, cell-based
# H22 = assay: Antimetastatic activity against mouse H22 cells transplanted in mouse lung assessed as inhibition of tumor growth on the surface of lungs at 50 mg/kg/day, po for 6 days a week for 2 weeks; type: functional; settings: read-out: TGI
# HL-60 = assay: Antiproliferative activity against human HL60 cells after 48 hrs by MTT assay; settings: HL-60, 48 h
# [2] = target: Aminopeptidase N (Sus scrofa) (UniProt P15145); assay: Inhibition of aminopeptidase N
# Chain of Aminopeptidase N (Sus scrofa) (P15145 whole entry, looked up): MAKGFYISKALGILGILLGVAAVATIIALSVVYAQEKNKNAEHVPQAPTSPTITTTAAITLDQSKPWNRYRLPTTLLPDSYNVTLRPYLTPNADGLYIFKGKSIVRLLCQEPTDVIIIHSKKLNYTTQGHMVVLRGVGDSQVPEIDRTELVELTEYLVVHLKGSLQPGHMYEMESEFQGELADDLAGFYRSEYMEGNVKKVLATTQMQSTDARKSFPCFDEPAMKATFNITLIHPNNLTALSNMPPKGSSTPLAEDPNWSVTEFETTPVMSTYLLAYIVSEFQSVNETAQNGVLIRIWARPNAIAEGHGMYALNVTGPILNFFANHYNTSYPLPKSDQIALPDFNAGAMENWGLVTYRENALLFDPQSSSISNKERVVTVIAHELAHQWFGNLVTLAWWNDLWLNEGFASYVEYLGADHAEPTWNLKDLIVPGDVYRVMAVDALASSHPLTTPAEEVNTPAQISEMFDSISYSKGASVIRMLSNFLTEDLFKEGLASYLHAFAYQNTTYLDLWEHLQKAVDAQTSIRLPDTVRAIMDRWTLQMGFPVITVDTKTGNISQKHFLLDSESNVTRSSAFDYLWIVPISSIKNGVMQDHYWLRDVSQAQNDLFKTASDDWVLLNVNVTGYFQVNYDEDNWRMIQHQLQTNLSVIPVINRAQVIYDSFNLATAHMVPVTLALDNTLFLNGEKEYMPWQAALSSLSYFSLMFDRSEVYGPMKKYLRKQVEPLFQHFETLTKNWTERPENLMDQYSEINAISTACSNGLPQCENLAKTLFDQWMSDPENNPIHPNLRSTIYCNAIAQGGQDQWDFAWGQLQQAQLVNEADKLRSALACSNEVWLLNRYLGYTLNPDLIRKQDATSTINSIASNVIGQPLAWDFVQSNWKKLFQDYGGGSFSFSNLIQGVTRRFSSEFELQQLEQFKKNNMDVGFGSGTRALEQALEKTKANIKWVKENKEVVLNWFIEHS
# [3] = Antimetastatic activity against human ES2 cells xenografted in mouse lung assessed as inhibition of tumor growth at 50 mg/kg/day, po for 6 days a week for 2 weeks; type: functional; settings: ES-2, read-out: TGI
IC50 [2],Compound,inhibition in vivo at 10 mg/kg/day [1],Activity (K562),inhibition in vivo at 50 mg/kg/day (H22),IC50 (HL-60),inhibition in vivo at 50 mg/kg/day [3]
,N[C@@H](Cc1ccccc1)C(=O)N[C@H]1CCC(=O)N(CC(=O)NO)C1=O,30.9%,inactive,72.9%,105 µM,
3.1 µM,COc1cc(C(=O)N[C@H]2CCC(=O)N(CC(=O)NO)C2=O)cc(OC)c1OC,,,,,
,CC(C)C[C@H](NC(=O)[C@@H](O)[C@H](N)Cc1ccccc1)C(=O)O [UBENIMEX],,,45.4%,,36.2%
,N[C@@H](Cc1ccc(O)cc1)C(=O)N[C@H]1CCC(=O)N(CC(=O)NO)C1=O,,,62.7%,147 µM,
